According to PubChem BioAssay AID2060603 (Molecular Pharmacology Branch, DTP, NCI, 2025):
Values joined by “and” are separate entries in the source; they are usually repeats but may differ in a detail not shown here. Equal values may be shown once.

System: 422866-222-R5-J1-PDC spheroid viability
Experiment: Anticancer human tumor 422866-222-R5-J1-PDC patient-derived pancreatic adenocarcinoma cell line growth inhibition [CLK]
Details: spheroids with HUVEC and MSC; for viability, T/C: stronger effect = lower value; active = viability on the fitted dose curve at most 10% of control; inactive = the rest
Outline: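 Patient-derived tumor cells grown as complex spheroids with HUVEC endothelial cells and mesenchymal stem cells, treated with drug combinations. Concentrations descend in half-log steps from near clinical Cmax, or from 10 microM if Cmax unknown.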

[1] = curve of first compound, second compound 0.0316 µM
[2] = curve of first compound, second compound 0.1 µM
[3] = curve of first compound, second compound 0.316 µM
[4] = curve of first compound, second compound 1 µM
[5] = curve of first compound, second compound 3.16 µM
[6] = curve of first compound, second compound 10 µM
[7] = second compound 0.0316 µM, first compound 0.0316 µM
[8] = second compound 0.0316 µM, first compound 0.1 µM
[9] = second compound 0.0316 µM, first compound 0.316 µM
[10] = second compound 0.0316 µM, first compound 1 µM
[11] = second compound 0.0316 µM, first compound 3.16 µM
[12] = second compound 0.0316 µM, first compound 10 µM
[13] = second compound 0.1 µM, first compound 0.0316 µM
[14] = second compound 0.1 µM, first compound 0.1 µM
[15] = second compound 0.1 µM, first compound 0.316 µM
[16] = second compound 0.1 µM, first compound 1 µM
[17] = second compound 0.1 µM, first compound 3.16 µM
[18] = second compound 0.1 µM, first compound 10 µM
[19] = second compound 0.316 µM, first compound 0.0316 µM
[20] = second compound 0.316 µM, first compound 0.1 µM
[21] = second compound 0.316 µM, first compound 0.316 µM
[22] = second compound 0.316 µM, first compound 1 µM
[23] = second compound 0.316 µM, first compound 3.16 µM
[24] = second compound 0.316 µM, first compound 10 µM
[25] = second compound 1 µM, first compound 0.0316 µM
[26] = second compound 1 µM, first compound 0.1 µM
[27] = second compound 1 µM, first compound 0.316 µM
[28] = second compound 1 µM, first compound 1 µM
[29] = second compound 1 µM, first compound 3.16 µM
[30] = second compound 1 µM, first compound 10 µM
[31] = second compound 3.16 µM, first compound 0.0316 µM
[32] = second compound 3.16 µM, first compound 0.1 µM
[33] = second compound 3.16 µM, first compound 0.316 µM
[34] = second compound 3.16 µM, first compound 1 µM
[35] = second compound 3.16 µM, first compound 3.16 µM
[36] = second compound 3.16 µM, first compound 10 µM
[37] = second compound 10 µM, first compound 0.0316 µM
[38] = second compound 10 µM, first compound 0.1 µM
[39] = second compound 10 µM, first compound 0.316 µM
[40] = second compound 10 µM, first compound 1 µM
[41] = second compound 10 µM, first compound 3.16 µM
[42] = second compound 10 µM, first compound 10 µM
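Note: spheroids exposed to agents for seven days before readout.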

CC(=O)O[C@H]1C(=O)[C@@]2(C)[C@H]([C@H](OC(=O)c3ccccc3)[C@]3(O)C[C@H](OC(=O)[C@H](O)[C@@H](NC(=O)c4ccccc4)c4ccccc4)C(C)=C1C3(C)C)[C@]1(OC(C)=O)CO[C@@H]1C[C@@H]2O + CN1CCN(c2cc(C(=O)Nc3cc4cc(-c5cnn(C)c5)ccc4cn3)ccn2)CC1
< 31.6 nM: IC50 [4] | IC50 [5] | IC50 [6]
> 10000 nM: IC50 [1] | IC50 [2] | IC50 [3]
inactive: viability, T/C [7] 72.2% | viability, T/C [8] 61.6% | viability, T/C [9] 61.4% | viability, T/C [10] 69.7% | viability, T/C [11] 78.1% | viability, T/C [12] 85.3% | viability, T/C [13] 70.5% | viability, T/C [14] 61.9% | viability, T/C [15] 73.1% | viability, T/C [16] 81.5% | viability, T/C [17] 83.8% | viability, T/C [18] 95.4% | viability, T/C [19] 68.7% | viability, T/C [20] 73% | viability, T/C [21] 72.3% | viability, T/C [22] 69.7% | viability, T/C [23] 72.7% | viability, T/C [24] 85.4% | viability, T/C [25] 21.8% | viability, T/C [26] 20.5% | viability, T/C [27] 18.8% | viability, T/C [28] 19.6% | viability, T/C [29] 18.7% | viability, T/C [30] 16.4%
active: viability, T/C [31] 6.64% | viability, T/C [32] 7.47% | viability, T/C [33] 8.49% | viability, T/C [34] 4.12% | viability, T/C [35] 9.46% | viability, T/C [36] 8% | viability, T/C [37] 1.52% | viability, T/C [38] 1.43% | viability, T/C [39] 1.2% | viability, T/C [40] 1.05% | viability, T/C [41] 0.96% | viability, T/C [42] 1.27%

C=CC(=O)Nc1cc(Nc2nccc(-c3cn(C)c4ccccc34)n2)c(OC)cc1N(C)CCN(C)C
inactive: viability, T/C (compound 0.000949 µM) 117% and 87.2% | viability, T/C (compound 0.003 µM) 106% and 102% | viability, T/C (compound 0.00949 µM) 83% and 85% | viability, T/C (compound 0.03 µM) 93.5% and 83.8% | viability, T/C (compound 0.0949 µM) 82.8% and 69% | viability, T/C (compound 0.3 µM) 74.9% and 72.9%
> 300 nM: IC50 (curve of compound)

COC1C=CCC(C)C(C)S(=O)(=O)NC(=O)c2ccc3c(c2)N(CC2CCC21)CC1(CCCc2cc(Cl)ccc21)CO3 (stereo not drawn)
> 10000 nM: IC50 (curve of compound)
inactive: viability, T/C (compound 0.0316 µM) 102% and 113% | viability, T/C (compound 0.1 µM) 91.9% and 102% | viability, T/C (compound 0.316 µM) 95.6% and 101% | viability, T/C (compound 1 µM) 97.8% and 87.8% | viability, T/C (compound 3.16 µM) 87.5% and 111% | viability, T/C (compound 10 µM) 59.8% and 69.4%

COc1ccc([C@@H](O)c2cc(-c3ncnc4cc(N5CCOCC5)ccc34)c(F)cc2Cl)nn1 + CN1CCN(c2cc(C(=O)Nc3cc4cc(-c5cnn(C)c5)ccc4cn3)ccn2)CC1
5040 nM: IC50 [2]
inactive: viability, T/C [7] 116% | viability, T/C [8] 96.8% | viability, T/C [9] 88.8% | viability, T/C [10] 77.4% | viability, T/C [11] 59% | viability, T/C [12] 39.5% | viability, T/C [13] 114% | viability, T/C [14] 98.8% | viability, T/C [15] 94.3% | viability, T/C [16] 73.6% | viability, T/C [17] 56% | viability, T/C [18] 40.4% | viability, T/C [19] 98.7% | viability, T/C [20] 87.8% | viability, T/C [21] 81.4% | viability, T/C [22] 77.7% | viability, T/C [23] 52.9% | viability, T/C [24] 48% | viability, T/C [25] 18.2% | viability, T/C [26] 18.5% | viability, T/C [27] 22.9% | viability, T/C [28] 16.7% | viability, T/C [29] 20.9% | viability, T/C [30] 19.1% | viability, T/C [31] 7.87% | viability, T/C [32] 8.87% | viability, T/C [33] 9.25% | viability, T/C [34] 8.71% | viability, T/C [35] 11.4% | viability, T/C [36] 14.6%
5480 nM: IC50 [1]
< 31.6 nM: IC50 [4] | IC50 [5] | IC50 [6]
7110 nM: IC50 [3]
active: viability, T/C [37] 1.27% | viability, T/C [38] 1.38% | viability, T/C [39] 1.7% | viability, T/C [40] 2.13% | viability, T/C [41] 3.04% | viability, T/C [42] 2.69%

CCc1c2c(nc3ccc(O)cc13)-c1cc3c(c(=O)n1C2)COC(=O)[C@]3(O)CC
inactive: viability, T/C (compound 0.00316 µM) 45.8% and 52.3% | viability, T/C (compound 0.01 µM) 37% and 43.1% | viability, T/C (compound 0.0316 µM) 44% and 44.3% | viability, T/C (compound 0.1 µM) 47.2% and 45.5% | viability, T/C (compound 0.316 µM) 41.7% and 43.5% | viability, T/C (compound 1 µM) 19.9% and 18.4%
< 3.16 nM: IC50 (curve of compound)

CC(Nc1ccc2c(c1)OCCn1cc(N3C(=O)OCC3C(F)F)nc1-2)C(N)=O (stereo not drawn) + CNC(=O)c1ccc(Nc2nc(OC3CCCC3)c3c(-c4ccc5nc(C)oc5c4)c[nH]c3n2)c(OC)c1
32 nM: IC50 [5]
86 nM: IC50 [3]
48.5 nM: IC50 [4]
144 nM: IC50 [1]
inactive: viability, T/C [7] 80.2% | viability, T/C [8] 52.4% | viability, T/C [9] 42.6% | viability, T/C [10] 35.1% | viability, T/C [11] 30.1% | viability, T/C [12] 28.7% | viability, T/C [13] 83.7% | viability, T/C [14] 56.9% | viability, T/C [15] 43.8% | viability, T/C [16] 32.8% | viability, T/C [17] 25.6% | viability, T/C [18] 31.9% | viability, T/C [19] 56.3% | viability, T/C [20] 49.1% | viability, T/C [21] 37% | viability, T/C [22] 28.1% | viability, T/C [23] 29.2% | viability, T/C [24] 24.2% | viability, T/C [25] 56.2% | viability, T/C [26] 37.6% | viability, T/C [27] 37.7% | viability, T/C [28] 31% | viability, T/C [29] 26.2% | viability, T/C [30] 24.9% | viability, T/C [31] 50.2% | viability, T/C [32] 41.2% | viability, T/C [33] 37.5% | viability, T/C [34] 29.4% | viability, T/C [35] 28.8% | viability, T/C [36] 25.3% | viability, T/C [37] 58.9% | viability, T/C [38] 43% | viability, T/C [39] 36.7% | viability, T/C [40] 31.9% | viability, T/C [41] 33.1% | viability, T/C [42] 25.8%
175 nM: IC50 [2]
62.6 nM: IC50 [6]

CNC(=O)c1ccc(Nc2nc(OC3CCCC3)c3c(-c4ccc5nc(C)oc5c4)c[nH]c3n2)c(OC)c1
inactive: viability, T/C (compound 0.0316 µM) 99.4% [middle of 12 runs] | viability, T/C (compound 0.1 µM) 93.4% [middle of 12 runs] | viability, T/C (compound 0.316 µM) 70.8% [middle of 12 runs] | viability, T/C (compound 1 µM) 68.3% [middle of 12 runs] | viability, T/C (compound 3.16 µM) 74.5% [middle of 12 runs]
> 10000 nM: IC50 (compound alone, run of 08/15/2023)
